This note sets out measurements from paper PMC13185115, “Photovermellogens: Minimalistic Pyridinium-Based Acylhydrazones with Photoswitchable Basicity for Operation in Aqueous Media” (The Journal of Organic Chemistry, 2026).

Assay type in all cases: physicochemical
Data set [1] can be described thus: Photostationary state distribution by 1H NMR integration. To be noted: pD 6; for PSD E→Z (photostationary state distribution): irradiation at 254 nm; for PSD Z→E (photostationary state distribution): irradiation at >420 nm. An excerpt:
(§1) Photoisomerization studies were subsequently carried out in acidic medium (pH = pK a – 2) in order to assess the photoresponse of the protonated species. Under these conditions, the anticipated photoisomerization of the thermally stable E-P a–dH^+ species was investigated by UV–vis absorption spectroscopy under irradiation at 254 nm. […] It is noteworthy that the irradiation wavelength can be extended to 365 nm, yielding virtually the same observations as for 254 nm irradiation (see footnotes of Table ). Irradiation also produced clear NMR spectral changes that support the occurrence of the E→Z isomerization. In essence, the signals Hf–h of the phenyl moiety were only slightly affected, whereas those of the pyridinium and acylhydrazone fragments shifted markedly, consistent with the formation of an intramolecular hydrogen bond in the Z-P a–cH^+ species. The reverse Z→E transformation of the protonated forms P a–cH^+ was also achieved upon irradiation at λ > 420 nm, giving lower quantum yields and less favorable PSDs (Figures S145–S147, S149–154, S1).

A short description of data set [2]: Photoisomerization kinetics and quantum yields of the protonated forms (UV-vis). To be noted: for k E-PH+ to Z-PH+ photoisomerization: pH 6 (pH 5 for P bH·Cl); for Φ Z→E photoisomerization quantum yield: irradiation at 440 nm.
Source text: as §1
5. Isomerization Photochemical Data.
5.1. E-P a-cH+→Z-P a-cH+ photoisomerization kinetics.
Figure S138. Left: variations in the absorption spectrum of P aH·Cl (20.6 µM, pH = 6) upon irradiation at 254 nm; the absorption spectrum of the E-form is shown in red; the photostationary state is in blue. Right: Kinetics (monitored at 320 nm) for the E-P aH+ to Z-P aH+ photoisomerization (20.6 µM) upon irradiation at 254 nm (I 0 = 1.37 × 10 –7 mol/s); k = 1.55 × 10 –2 […]
Figure S139. Left: variations in the absorption spectrum of P aH·Cl (17.5 µM, pH = 6) upon irradiation at 365 nm; the absorption spectrum of the E-form is shown in red; the photostationary state is in blue. Right: Kinetics (monitored at 400 nm) for the E-P aH+ to Z-P aH+ photoisomerization (17.5 µM) upon irradiation at 365 nm (I 0 = 2.6 × 10 –7 mol/s); k = 6.4 × 10 –2 […]
Figure S140. Left: variations in the absorption spectrum of P bH·Cl (7.9 µM, pH = 5) upon […]
state is in blue. Right: Kinetics (monitored at 370 nm) for the E-P bH+ to Z-P bH+ photoisomerization (7.9 µM) upon irradiation at 254 nm (I 0 = 1.41 × 10 –7 mol/s); k = 4.91 × 10 –2 […]
Figure S141. Left: variations in the absorption spectrum of P bH·Cl (10 µM, pH = 5) upon […]
state is in blue. Right: Kinetics (monitored at 420 nm) for the E-P bH+ to Z-P bH+ photoisomerization (10 µM) upon irradiation at 365 nm (I 0 = 2.0 × 10 –7 mol/s); k = 3.0 × 10 –2 s–1.
Figure S142. Left: variations in the absorption spectrum of P cH·Cl (9 µM, pH = 6) upon […]
state is in blue. Right: Kinetics (monitored at 377 nm) of the E-P cH+ to Z-P cH+ photoisomerization […]
Figure S143. Left: variations in the absorption spectrum of P cH·Cl (10 µM, pH = 6) upon […]
state is in blue. Right: Kinetics (monitored at 410 nm) of the E-P cH+ to Z-P cH+ photoisomerization

Data set [3] can be described thus: pKa determination for the photostationary state (Z-enriched) by UV-Vis spectroscopy. The note with it: apparent acidity constant of the cationic Z form as present in the photostationary state (88–97% Z) after 254 nm irradiation; water. The source says: Having confirmed the photochemical behavior of the protonated forms, we next explored their light-responsiveness in the deprotonated state. […] To probe whether Z-P a–c could nonetheless be generated indirectly, we explored a consecutive photoisomerization–deprotonation sequence. Thus, E-P a–cH^+ was first irradiated at 254 nm and pH 6 to enrich the Z population, followed by immediate adjustment of the solution to pH 13. Under these conditions, transient spectroscopic features were observed, consistent with the kinetic trapping of the metastable Z-P a–c species. […] These spectroscopic observations enabled the estimation of virtual pK a values for the Z-enriched solutions (Table and Figures S163–168, SI1), which confirmed the reduced acidity of the NH group in the Z-isomers, presumably arising from intramolecular hydrogen-bond formation.
6. Determination of pK a values for the PSS by UV-Vis spectroscopy.
The concentration of P a-cH·Cl was kept constant at appropriate values in the 10-20 µM range, and that of the phosphate buffer at 20 mM. The absorption measurements of the corresponding air-equilibrated phosphate buffered aqueous solutions were carried out at room temperature (298 K), in quartz cuvettes with 1 cm optical pathlength. For the kinetic trapping of the deprotonated Z-isomers of P a-cH·Cl, a solution of the corresponding salt in phosphate buffered solution at a conveniently acidic pH/pD was irradiated at 254 nm until reaching the PSS. Then, the pH of the solution was in each case adjusted to the required final value, by addition of 40 mM stock solutions of phosphate buffer of the required composition. The reported measurements were done as fast as possible to minimize thermal back-isomerization.

A short description of data set [4]: Thermal Z-PH+ to E-PH+ back-isomerization kinetics.
Source text: as §1
5.5. Z-P a-cH+→E-P a-cH+ thermal back-isomerization kinetics.
Figure S155. Absorption spectrum variation during 48h at room temperature from the PSS reached for P aH·Cl (7µM, pH 6, Red) state during 48h. E-isomer absorption spectrum in green.
Even though the kinetics has not been fully completed, it can be observed that it occurs much more slowly than photochemical processes.
To obtain an estimation of P aH·Cl Z→E thermal half-live at room temperature, the Z →E thermal reversion kinetics were monitored starting from the 254nm photostationary state at different temperatures (47, 55 and 64 °C). By tracking the absorbance changes at 420 nm, an Arrhenius analysis was performed, allowing the determination of the activation energy (EA) and the estimation of the thermal half-life at 25 °C.

Where [5] appears, read: irradiation at 254 nm (I0 1.37–1.41 × 10–7 mol/s).
Setting [6] is: irradiation at 254 nm, pH 6, error ± 20%.
The mark [7] stands for this setting: irradiation at 365 nm (I0 2.0–2.6 × 10–7 mol/s).

For the molecule `C[n+]1ccc(NN=CC(=O)c2ccccc2)cc1` [P aH^+], the “PSD E→Z (photostationary state distribution)” value (from here on “PSD E→Z”) in data set [1] is 93% Z. Besides, in data set [1], the “PSD Z→E (photostationary state distribution)” value (from here on “PSD Z→E”) is recorded as 67% E. Also, the “k E-PH+ to Z-PH+ photoisomerization” value in data set [2] (setting [5]) is listed as 1.55 10^–2 s^–1; in data set [2] (setting [7]), 6.4 10^–2 s^–1. Also, the “Φ E→Z photoisomerization quantum yield” value was 0.20 in data set [2] (setting [6]) and 0.22 in data set [2] (irradiation at 365 nm). Further, in data set [2] (pH 6, error ± 20%), the “Φ Z→E photoisomerization quantum yield” value is listed as 0.001. The “pK a (PSD)” value in data set [3] is 10.4 ± 0.2. The “k Z→E unimolecular rate constant, thermal back-isomerization” value (from here on “k Z→E unimolecular rate constant”) in data set [4] (heating to 60 °C, pD 6) was 4.1 10^–4 s^–1.

In the case of `C[n+]1ccc(NN=CC(=O)c2ccccc2)c2ccccc21` [P bH^+], in data set [1], the “PSD E→Z” value is reported as 93% Z. For the same molecule, the “PSD Z→E” value in data set [1] is 57% E. Besides, the “k E-PH+ to Z-PH+ photoisomerization” value in data set [2] (setting [5]) is given as 4.91 10^–2 s^–1; in data set [2] (setting [7]), 3.0 10^–2 s^–1. Also, the “Φ E→Z photoisomerization quantum yield” value came out at 0.38 in data set [2] (setting [6]) and 0.35 in data set [2] (irradiation at 365 nm). The “Φ Z→E photoisomerization quantum yield” value in data set [2] (pH 6, error ± 20%) amounted to 0.002. Besides, the “pK a (PSD)” value in data set [3] came out at 8.8 ± 0.2. In addition, in data set [4] (heating to 70 °C, pD 5), the “k Z→E unimolecular rate constant” value is 9.8 10^–4 s^–1.

With `O=C(C=NNc1cc[n+](-c2ccccc2)cc1)c1ccccc1` [P cH^+], the “PSD E→Z” value in data set [1] stood at 98% Z. Also, in data set [1], the “PSD Z→E” value is listed as 55% E. Also, the figures for the “k E-PH+ to Z-PH+ photoisomerization” value in data set [2] (setting [5]) and in data set [2] (setting [7]) were 4.90 10^–2 s^–1 and 2.0 10^–2 s^–1, respectively. Also, the “Φ E→Z photoisomerization quantum yield” value in data set [2] (setting [6]) and in data set [2] (irradiation at 365 nm) was 0.34 throughout. The “Φ Z→E photoisomerization quantum yield” value in data set [2] (pH 6, error ± 20%) stood at 0.008. In data set [3], the “pK a (PSD)” value is on record as 9.9 ± 0.1. The “k Z→E unimolecular rate constant” value in data set [4] (heating to 70 °C, pD 6) was 2.4 10^–4 s^–1.

For `C[n+]1ccc(-c2ccc(NN=CC(=O)c3ccccc3)cc2)cc1` [P dH^+], the “E→Z photoisomerization of the protonated form (UV-vis changes)” value in data set [2] (irradiation at 254 nm, acidic medium pH = pKa – 2) is recorded as “no detectable changes”.
